Laboratory results as given in patent publication US20090306053A1, “Highly selective rho-kinase inhibitor” (priority 2005, published 2009).
Counter-ions that a name gives are not always drawn.

What was measured:
Format in all cases: biochemical
[1] = molecular target: ROCKII (Rho-kinase) (Homo sapiens, UniProt O75116); assay: Rho-kinase (ROCKII) assay according to Patent Document 1; design: key to Realative Inhibitory Activity ROCKII: relative ratio; ROCKII-inhibiting activity defined as 1.0; conditions: ROCKII-inhibiting activity defined as 1.0 (reference)
Procedure: An Rho-kinase assay was carried out according to the method described in Patent Document 1, and the concentration of a compound for inhibiting Rho-kinase activity by 50% (hereinafter referred to as “IC50 value”) was calculated.
(§1) The ROCKII-inhibiting activity of a compound to be tested was defined as 1.0, and the inhibitory activities of the compound against kinases (PKA, PKG, CaMKII, and AuroraA) other than ROCKII were calculated as relative ratios to the ROCKII-inhibiting activity, based on the IC50 values calculated using the above-described evaluation system.

[2] = molecular target: T1, Purified bovine PKGα (Bos taurus, UniProt P00516); assay: PKG kinase assay (Kinase-Glo ATP consumption); conditions: relative ratio to ROCKII (=1.0), based on IC50 values
T1 construct: Purified bovine PKGα (Promega); purchased Promega
T1 sequence (P00516 1-671): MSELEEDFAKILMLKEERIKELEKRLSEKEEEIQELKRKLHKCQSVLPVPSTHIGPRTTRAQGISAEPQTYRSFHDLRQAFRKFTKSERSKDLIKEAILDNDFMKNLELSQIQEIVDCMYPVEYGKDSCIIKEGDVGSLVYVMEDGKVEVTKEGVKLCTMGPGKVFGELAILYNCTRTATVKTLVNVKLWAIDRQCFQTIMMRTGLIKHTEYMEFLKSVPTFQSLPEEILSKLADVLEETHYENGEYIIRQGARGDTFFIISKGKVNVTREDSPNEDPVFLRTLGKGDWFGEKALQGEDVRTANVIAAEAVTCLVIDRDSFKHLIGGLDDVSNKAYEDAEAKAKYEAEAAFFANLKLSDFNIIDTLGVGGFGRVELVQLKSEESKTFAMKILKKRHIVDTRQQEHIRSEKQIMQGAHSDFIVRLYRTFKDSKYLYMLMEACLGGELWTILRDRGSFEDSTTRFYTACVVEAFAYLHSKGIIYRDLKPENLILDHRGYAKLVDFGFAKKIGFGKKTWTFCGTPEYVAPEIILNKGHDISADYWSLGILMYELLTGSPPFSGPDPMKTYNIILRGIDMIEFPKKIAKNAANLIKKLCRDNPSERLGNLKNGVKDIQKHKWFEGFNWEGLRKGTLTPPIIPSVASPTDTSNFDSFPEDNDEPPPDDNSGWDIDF
Procedure: Purified bovine PKGα (Promega) was used to evaluate its activity to phosphorylate a substrate peptide (RKISASEF, Promega).
(§2) In a system of the total volume of 50 μL, the reaction of the above-mentioned enzyme (64 ng) was carried out at room temperature for 80 minutes in the presence of 40 mM of Tris-HCl (pH 7.5), 20 mM of magnesium chloride, 10 μM of cGMP (Sigma), 100 μM of the above peptide, and 1 μM of ATP. After the kinase reaction, the luminescence intensity corresponding to the amount of ATP in the reaction system was measured using a luciferase reagent (Kinase-Glo Luminescent Kinase Assay kit, Promega) with a chemiluminescence measurement apparatus (MicroLumat, Berthold Technologies). The amount of ATP consumed by the phosphorylation reaction was calculated by comparison with the luminescence intensity in the system when the kinase reaction was not carried out.
(§3) With this system, the kinase reaction was carried out in the presence of a compound at various concentrations, and the IC50 value of the compound was determined based on the resulting compound concentration-response curve for ATP consumption.
as §1

[3] = test system: Purified rat CaMKII; assay: CaMKII kinase assay (Kinase-Glo ATP consumption); conditions: relative ratio to ROCKII (=1.0), based on IC50 values
Procedure: Purified rat CaMKII (containing CaMKIIα and small amounts of β, γ, and δ isoforms, Upstate) was used to evaluate its activity to phosphorylate a substrate peptide (KKALRRQETVDAL, Upstate).
In a system of the total volume of 50 μL, the reaction of the above-mentioned enzyme (33 ng) was carried out at room temperature for 60 minutes in the presence of 50 mM of Tris-HCl (pH7.5), 10 mM of magnesium chloride, 2 mM of calcium chloride, 0.04 mg/mL of BSA, 16 μg/mL of purified bovine brain calmodulin (Sigma), 0.5 mM of DTT, 50 µM of the above peptide, and 1 μM of ATP. After the kinase reaction, the luminescence intensity corresponding to the amount of ATP in the reaction system was measured using a luciferase reagent (Kinase-Glo Luminescent Kinase Assay kit, Promega) with a chemiluminescence measurement apparatus (MicroLumat, Berthold Technologies). The amount of ATP consumed by the phosphorylation reaction was calculated by comparison with the luminescence intensity in the system when the kinase reaction was not carried out.
as §3, §1

[4] = molecular target: T2, Purified bovine PKA (catalyst subunit) (Bos taurus, UniProt P00517); assay: PKA kinase assay (Kinase-Glo ATP consumption); conditions: relative ratio to ROCKII (=1.0), based on IC50 values
T2 construct: Purified bovine PKA (catalyst subunit, Promega); purchased Promega
Procedure: Purified bovine PKA (catalyst subunit, Promega) was used to evaluate its activity to phosphorylate a substrate peptide (LRRASLG, Promega).
as §2, with “(43” for “(64”, “20” for “80”, “1 mg/mL” for “10 μM”, “BSA, 5” for “cGMP (Sigma), 100”
as §3, §1

[5] = molecular target: T3, Recombinant human AuroraA (Homo sapiens, UniProt O14965); assay: AuroraA kinase assay (Kinase-Glo ATP consumption); design: key to Realative Inhibitory Activity AuroraA: ratio relative to ROCKII-inhibiting activity defined as 1.0 (from IC50s); conditions: relative ratio to ROCKII (=1.0), based on IC50 values
T3 construct: purchased Upstate
T3 sequence (O14965 1-403): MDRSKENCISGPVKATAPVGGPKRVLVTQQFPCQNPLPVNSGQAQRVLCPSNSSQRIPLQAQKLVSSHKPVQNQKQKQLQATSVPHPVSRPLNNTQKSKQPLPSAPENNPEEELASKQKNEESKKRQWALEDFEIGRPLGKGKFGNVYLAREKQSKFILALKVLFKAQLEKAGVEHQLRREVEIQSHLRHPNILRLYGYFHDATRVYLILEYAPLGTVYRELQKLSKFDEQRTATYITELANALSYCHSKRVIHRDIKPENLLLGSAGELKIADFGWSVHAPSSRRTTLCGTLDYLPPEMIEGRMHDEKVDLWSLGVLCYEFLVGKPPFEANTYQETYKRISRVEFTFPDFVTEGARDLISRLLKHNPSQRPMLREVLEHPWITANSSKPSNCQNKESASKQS
Procedure: Recombinant human AuroraA (Upstate) was used to evaluate its activity to phosphorylate a substrate peptide (LRRASLG, Promega) was evaluated.
as §2, with “(40” for “(64”, “MOPS-NaOH” for “Tris-HCl”, “200” for “10 μM of cGMP (Sigma), 100”
as §3, §1

Sequence of ROCKII (Rho-kinase) (O75116 whole entry, species assumed): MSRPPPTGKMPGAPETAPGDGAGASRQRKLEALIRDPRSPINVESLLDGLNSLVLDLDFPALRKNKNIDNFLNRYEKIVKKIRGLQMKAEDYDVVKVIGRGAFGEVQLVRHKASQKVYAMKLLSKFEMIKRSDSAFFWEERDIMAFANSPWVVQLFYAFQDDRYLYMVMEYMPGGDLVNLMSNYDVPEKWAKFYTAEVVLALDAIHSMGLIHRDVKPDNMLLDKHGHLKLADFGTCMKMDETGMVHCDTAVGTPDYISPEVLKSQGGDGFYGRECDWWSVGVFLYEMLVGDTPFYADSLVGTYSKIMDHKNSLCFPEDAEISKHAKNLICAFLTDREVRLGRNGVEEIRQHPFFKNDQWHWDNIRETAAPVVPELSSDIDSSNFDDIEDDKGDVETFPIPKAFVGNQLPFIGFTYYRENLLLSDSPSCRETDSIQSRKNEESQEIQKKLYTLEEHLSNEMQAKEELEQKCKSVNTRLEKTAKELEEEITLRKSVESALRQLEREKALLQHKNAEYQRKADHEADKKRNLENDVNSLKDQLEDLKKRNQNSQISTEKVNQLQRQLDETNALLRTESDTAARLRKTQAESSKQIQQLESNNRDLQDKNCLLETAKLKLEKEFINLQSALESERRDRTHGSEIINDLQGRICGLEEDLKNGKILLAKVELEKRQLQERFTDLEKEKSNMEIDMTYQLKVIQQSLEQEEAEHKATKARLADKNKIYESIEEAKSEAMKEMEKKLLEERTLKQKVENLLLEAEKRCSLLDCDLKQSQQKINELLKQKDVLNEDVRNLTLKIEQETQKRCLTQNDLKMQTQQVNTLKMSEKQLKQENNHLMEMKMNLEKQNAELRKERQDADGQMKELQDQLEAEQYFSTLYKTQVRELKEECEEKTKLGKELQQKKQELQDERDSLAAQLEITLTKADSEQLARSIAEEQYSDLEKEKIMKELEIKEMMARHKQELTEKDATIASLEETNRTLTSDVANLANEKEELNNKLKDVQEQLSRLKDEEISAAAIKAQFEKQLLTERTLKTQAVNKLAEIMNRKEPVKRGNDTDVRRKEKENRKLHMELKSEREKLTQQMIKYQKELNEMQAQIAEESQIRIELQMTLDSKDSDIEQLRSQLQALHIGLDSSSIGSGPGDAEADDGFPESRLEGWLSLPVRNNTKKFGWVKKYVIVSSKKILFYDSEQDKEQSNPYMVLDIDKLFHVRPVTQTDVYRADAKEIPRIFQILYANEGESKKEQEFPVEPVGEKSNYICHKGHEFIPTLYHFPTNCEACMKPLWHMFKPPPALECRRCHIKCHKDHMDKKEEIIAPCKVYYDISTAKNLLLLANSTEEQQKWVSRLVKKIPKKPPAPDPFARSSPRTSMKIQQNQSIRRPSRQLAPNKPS

Molecule	Realative Inhibitory Activity ROCKII [1]	Realative Inhibitory Activity PKG [2]	Realative Inhibitory Activity CaMKII [3]	Realative Inhibitory Activity PKA [4]	Realative Inhibitory Activity AuroraA [5]
2-(S)-4-(D-alanyl)-1-(4-fluoroisoquinoline-5-sulfonyl)-2-methylhomopiperazine dihydrochloride [Example 4]	1	93	300	>300	>300
CC[C@H](N)C(=O)N1CCCN(S(O)(O)c2cccc3cncc(F)c23)[C@@H](C)C1 [Example 11, 2-(S)-4-(L-α-aminobutylyl)-1-(4-fluoroisoquinoline-5-sulfonyl)-2-methylhomopiperazine dihydrochloride]	1	79	364	>300	210
CC[C@@H](N)C(=O)N1CCCN(S(O)(O)c2cccc3cncc(F)c23)[C@@H](C)C1 [Example 12, 2-(S)-4-(D-α-aminobutylyl)-1-(4-fluoroisoquinoline-5-sulfonyl)-2-methylhomopiperazine dihydrochloride]	1	92	>300	>300	244
C[C@H](N)C(=O)N1CCCN(S(O)(O)c2cccc3cncc(F)c23)[C@@H](C)C1 [Example 3, 2-(S)-4-(L-alanyl)-1-(4-fluoroisoquinoline-5-sulfonyl)-2-methylhomopiperazine dihydrochloride]	1	11	135	>300	145
CC(C)[C@@H](N)C(=O)N1CCCN(S(O)(O)c2cccc3cncc(F)c23)[C@@H](C)C1 [Example 6, 2-(S)-1-(4-fluoroisoquinoline-5-sulfonyl)-2-methyl-4-(D-valyl)homopiperazine dihydrochloride]	1	30	>300	>300	>300
